Experimental findings from ChEMBL document CHEMBL1152491, “Synthesis and evaluation of antibacterial activities of andrographolide analogues” (2009) are described below.

The source made the active and inactive calls. No cut-off for these calls is given here. A value given as a limit tells only on which side of the number the result lay.

Experiment [1] deals with Pseudomonas aeruginosa PAO1. The experiment can be described thus: Inhibition of Pseudomonas aeruginosa PAO1 quorum sensing assessed as suppression of protease production at 0.1 mM after 18 hrs by azocasein-based colorimetric method.
Experiment [2] relates to Staphylococcus aureus. The experiment can be described thus: Antibacterial activity against Staphylococcus aureus at 0.05 mg/disk after 25 hrs. Type of experiment: functional.
Experiment [3] has as its system Pseudomonas aeruginosa PAO1. The experiment can be described thus: Inhibition of Pseudomonas aeruginosa PAO1 quorum sensing assessed as suppression of protease production at 1 mM after 18 hrs by azocasein-based colorimetric method.
Another experiment concerns Escherichia coli. The experiment can be described thus: Antibacterial activity against Escherichia coli at 0.05 mg/disk after 25 hrs. Type of experiment: functional.
In experiment [4] the test system is Pseudomonas aeruginosa. The experiment can be described thus: Inhibition of Pseudomonas aeruginosa PAO1 quorum sensing assessed as inhibition of pycocyanin production at 0.1 mM after 18 hrs. Type of experiment: functional, organism-based.
Experiment [5] relates to Staphylococcus aureus. The experiment can be described thus: Antibacterial activity against methicillin-resistant Staphylococcus aureus 5677 at 0.05 mg/disk after 25 hrs. Format: functional.
A further experiment concerns Candida albicans. The experiment can be described thus: Antifungal activity against Candida albicans at 0.05 mg/disk after 25 hrs. Type of experiment: functional, organism-based.
In experiment [6] the test system is Staphylococcus aureus. Nature of the experiment: Antibacterial activity against methicillin-resistant Staphylococcus aureus 5676 at 0.05 mg/disk after 25 hrs. Format: functional.
In another experiment the test system is Bacillus subtilis. Nature of the experiment: Antibacterial activity against Bacillus subtilis at 0.05 mg/disk after 25 hrs. Type of experiment: functional.
In experiment [7] the test system is Pseudomonas aeruginosa PAO1. Nature of the experiment: Inhibition of Pseudomonas aeruginosa PAO1 quorum sensing assessed as inhibition of pycocyanin production at 1 mM after 18 hrs.
The subject of experiment [8] is Pseudomonas aeruginosa. The experiment can be described thus: Antibacterial activity against Pseudomonas aeruginosa at 0.05 mg/disk after 25 hrs. Type of experiment: functional.
Experiment [9] has as its system Pseudomonas aeruginosa. Nature of the experiment: Growth inhibition of Pseudomonas aeruginosa PAO1 at 1 mM after 25 hrs. Format: functional, organism-based.
The subject of experiment [10] is Pseudomonas aeruginosa. Nature of the experiment: Inhibition of Pseudomonas aeruginosa PAO1 biofilm formation cultivated on respiratory tack suction tube at 1 mM after 7 days by scanning electron microscopy. Type of experiment: functional, organism-based.
Experiment [11] deals with Pseudomonas aeruginosa. Nature of the experiment: Inhibition of Pseudomonas aeruginosa PAO1 biofilm formation cultivated on respiratory tack suction tube at 1 mM after 3 days by scanning electron microscopy. Format: functional, organism-based.
Experiment [12] concerns Pseudomonas aeruginosa. Nature of the experiment: Growth inhibition of Pseudomonas aeruginosa PAO1 assessed as population density at 1 mM after 15 hrs by atomic force microscopy. Type of experiment: functional, organism-based.
Experiment [13] has as its system Pseudomonas aeruginosa. Nature of the experiment: Growth inhibition of Pseudomonas aeruginosa PAO1 assessed as survival rate at 538 ug/mL after 20 hrs. Format: functional. Conditions: PAO1, 20 h.
For experiment [14], the system named is Pseudomonas aeruginosa. Nature of the experiment: Growth inhibition of Pseudomonas aeruginosa PAO1 assessed as survival rate at 3.75 ug/mL after 20 hrs. Type of experiment: functional. Conditions: PAO1, 20 h.
Experiment [15] deals with Pseudomonas aeruginosa. Nature of the experiment: Growth inhibition of Pseudomonas aeruginosa PAO1 assessed as survival rate at 0.017 ug/mL after 20 hrs. The settings on record: PAO1, 20 h. Type of experiment: functional.
Experiment [16] has as its system Pseudomonas aeruginosa. Nature of the experiment: Growth inhibition of Pseudomonas aeruginosa PAO1 at 10 mM after 25 hrs. Format: functional, organism-based.
In experiment [17] the test system is Pseudomonas aeruginosa PAO1. The experiment can be described thus: Inhibition of Pseudomonas aeruginosa PAO1 quorum sensing assessed as suppression of protease production at 10 mM after 18 hrs by azocasein-based colorimetric method.
In experiment [18] the test system is Pseudomonas aeruginosa PAO1. The experiment can be described thus: Inhibition of Pseudomonas aeruginosa PAO1 quorum sensing assessed as inhibition of pycocyanin production at 10 mM after 18 hrs.

For the compound `C=C1CC[C@@H]2[C@](C)(CO)[C@H](O)CC[C@@]2(C)[C@@H]1C/C=C1/C(=O)OC[C@H]1OC(=O)CNC(=O)OC(C)(C)C`, the outcome (in [1]; in [3]; in the experiment with Pseudomonas aeruginosa [4]; in experiment [7]) was Active. Moreover, the “diameter of the inhibition zone (DIZ)” value is 10.2 mm in the experiment with Staphylococcus aureus [2]; below 4 mm with Escherichia coli; 7.6 mm with Staphylococcus aureus [5]; 8.4 mm in the experiment with Staphylococcus aureus [6]; below 4 mm in the experiment with Bacillus subtilis; below 4 mm with Pseudomonas aeruginosa [8]. Further, in the experiment on Candida albicans, the result was inactive.
In the case of `C=C1CC[C@@H]2[C@](C)(CO)[C@H](O)CC[C@@]2(C)[C@@H]1C/C=C1/C(=O)OC[C@H]1OC(=O)/C=C/c1ccc([N+](=O)[O-])cc1`, the outcome (in [1]; in experiment [3]; in the experiment with Pseudomonas aeruginosa [4]; in [7]) was Active. Moreover, the “diameter of the inhibition zone (DIZ)” value is 8.3 mm with Staphylococcus aureus [2]; below 4 mm in the experiment on Escherichia coli; 6.4 mm with Staphylococcus aureus [5]; 8.1 mm in the experiment with Staphylococcus aureus [6]; below 4 mm in the experiment on Bacillus subtilis; below 4 mm with Pseudomonas aeruginosa [8]. Moreover, the result with Candida albicans was inactive.
Consider `C=C1CC[C@@H]2[C@](C)(CO)[C@H](O)CC[C@@]2(C)[C@@H]1C/C=C1/C(=O)OC[C@H]1OC(=O)CN.Cl`, for which the result (in [1]; in experiment [3]; in the experiment with Pseudomonas aeruginosa [4]; with Pseudomonas aeruginosa [9]; in experiment [7]; with Pseudomonas aeruginosa [12]) was Active. In addition, the “diameter of the inhibition zone (DIZ)” value in the experiment on Staphylococcus aureus [2] is 9.3 mm; in the experiment on Escherichia coli, below 4 mm; in the experiment with Staphylococcus aureus [5] it was 5.2 mm; with Staphylococcus aureus [6] it was 8.7 mm; in the experiment on Bacillus subtilis, below 4 mm; in the experiment with Pseudomonas aeruginosa [8] it was below 4 mm. Besides, the outcome with Pseudomonas aeruginosa [10], in the experiment on Candida albicans and in the experiment with Pseudomonas aeruginosa [11] was inactive.
On to `C=C1CC[C@@H]2[C@](C)(CO)[C@H](O)CC[C@@]2(C)[C@@H]1C/C=C1/C(=O)OC[C@H]1O` [ANDROGRAPHOLIDE], for which the outcome (in experiment [1]; in [3]; in the experiment with Pseudomonas aeruginosa [9]) was Active. For the same compound, the “diameter of the inhibition zone (DIZ)” value with Staphylococcus aureus [2], in the experiment on Escherichia coli, in the experiment on Bacillus subtilis and in the experiment with Pseudomonas aeruginosa [8] was below 4 mm throughout. Moreover, the outcome in the experiment on Pseudomonas aeruginosa [10], with Pseudomonas aeruginosa [11] and with Pseudomonas aeruginosa [12] was inactive.
For the compound `C=C1CC[C@@H]2[C@](C)(CO)[C@H](O)CC[C@@]2(C)[C@@H]1C/C=C1/C(=O)OC[C@H]1OC(=O)CCCCC1CCSS1` (stereo not given in full), the outcome (in experiment [1]; in [3]; with Pseudomonas aeruginosa [4]; in the experiment with Pseudomonas aeruginosa [9]; with Pseudomonas aeruginosa [10]; in [7]) was Active. For the same compound, the outcome in the experiment on Pseudomonas aeruginosa [11] and in the experiment on Pseudomonas aeruginosa [12] was Active. In addition, the “diameter of the inhibition zone (DIZ)” value with Staphylococcus aureus [2] was 4.9 mm; in the experiment on Escherichia coli, below 4 mm; in the experiment with Staphylococcus aureus [5], 4.1 mm; with Staphylococcus aureus [6] it was 6.9 mm; in the experiment on Bacillus subtilis, below 4 mm; with Pseudomonas aeruginosa [8], below 4 mm. For the same compound, the outcome with Candida albicans was inactive. Moreover, the survival at 538 µg/mL in the experiment with Pseudomonas aeruginosa [13] was determined as 84%.
As for `CC[C@H]1OC(=O)[C@H](C)[C@@H](O[C@H]2C[C@@](C)(OC)[C@@H](O)[C@H](C)O2)[C@H](C)[C@@H](O[C@@H]2O[C@H](C)C[C@H](N(C)C)[C@H]2O)[C@](C)(O)C[C@@H](C)C(=O)[C@H](C)[C@@H](O)[C@]1(C)O` [ERYTHROMYCIN], in the experiment with Pseudomonas aeruginosa [14], the survival at 3.75 µg/mL stood at 93.5%.
Regarding `O=C(O)c1cn(C2CC2)c2cc(N3CCNCC3)c(F)cc2c1=O` [CIPROFLOXACIN], in the experiment with Pseudomonas aeruginosa [15], the survival at 0.017 µg/mL turned out to be 85%.
With `C=C1CC[C@@H]2[C@](C)(CO)[C@H](O)CC[C@@]2(C)[C@@H]1CC(C1=CCOC1=O)S(=O)(=O)[O-].[Na+]` (stereo not given in full), the result in the experiment with Pseudomonas aeruginosa [16], with Pseudomonas aeruginosa [4] and in the experiment with Candida albicans was inactive. Further, the result in [1], in [17] and in experiment [18] was Active. In addition, the “diameter of the inhibition zone (DIZ)” value with Staphylococcus aureus [2], in the experiment with Escherichia coli, in the experiment with Bacillus subtilis and in the experiment with Pseudomonas aeruginosa [8] was below 4 mm throughout.
